What was measured:
[1] = system: uninfected hamster tracheal explants; assay: Relative activity (explant viability: epithelial integrity x ciliary vigor) of uninfected hamster tracheal explants exposed to 2,4-DMP (toxicity); format: cell-based, golden hamster; conditions: for Relative activity following days of incubation with 2,4-DMP: uninfected explants, scale 0 to 300
Experimental: Adult golden hamsters (approximately 140 g. male and female) were used as the tissue source. Animals appearing to be disease-free were selected. Tracheas were removed aseptically and sliced into rings. The rings were rinsed and then transfered into sterile Petri dishes containing a shallow layer of minimal essential medium (MEM, with glutamine, NaHCO3, 10% horse serum and 500 units of penicillin G/ml). These organ cultures were incubated for 24 hours at 36° C. in 5% carbon dioxide and then scored for "relative activity" (RA), a measure of explant viability. "Relative Activity" (0 to 300) is the product of the percentage of the epithelial layer which is intact (0 to 100) and the relative vigor of ciliary beating (0 to 3).
Before undertaking further studies the determination of the toxicity of 2,4-DMP toward hamster tracheal explants and Mycoplasma pneumoniae is necessary.

[2] = system: M. pneumoniae; assay: Growth of logarithmically growing cultures of M. pneumoniae in liquid culture with 2,4-DMP (CFU/ml); format: cell-based, Mycoplasma pneumoniae, strain PI 1428

Cc1ccc(O)c(C)c1 [2,4-DMP, 2,4-dimethylphenol]
reductions in RAs of uninfected explants ([1]; 10^-3 and 10^-4 M): Significant reductions in RAs | overt cytotoxic effects in uninfected rings ([1]; 10^-5 M or less): no overt cytotoxic effects | Relative activity following days of incubation with 2,4-DMP ([1]; 10^-3 moles/liter, day 1): 210 ± 19 | Relative activity following days of incubation with 2,4-DMP ([1]; 10^-3 moles/liter, day 2): 155 ± 12 | Relative activity following days of incubation with 2,4-DMP ([1]; 10^-3 moles/liter, day 3): 105 ± 16 | Relative activity following days of incubation with 2,4-DMP ([1]; 10^-3 moles/liter, day 4): 75 ± 16 | Relative activity following days of incubation with 2,4-DMP ([1]; 10^-3 moles/liter, day 5): 55 ± 12 | Relative activity following days of incubation with 2,4-DMP ([1]; 10^-3 moles/liter, day 6): 50 ± 16 | Relative activity following days of incubation with 2,4-DMP ([1]; 10^-3 moles/liter, day 7): 50 ±16 | Relative activity following days of incubation with 2,4-DMP ([1]; 10^-4 moles/liter, day 1): 255 ± 16 | Relative activity following days of incubation with 2,4-DMP ([1]; 10^-4 moles/liter, day 2): 240 ± 33 | Relative activity following days of incubation with 2,4-DMP ([1]; 10^-4 moles/liter, day 3): 200 ± 49 | Relative activity following days of incubation with 2,4-DMP ([1]; 10^-4 moles/liter, day 4): 160 ± 45 | Relative activity following days of incubation with 2,4-DMP ([1]; 10^-4 moles/liter, day 5): 150 ± 27 | Relative activity following days of incubation with 2,4-DMP ([1]; 10^-4 moles/liter, day 6): 140 ± 24 | Relative activity following days of incubation with 2,4-DMP ([1]; 10^-4 moles/liter, day 7): 135 ± 16 | Relative activity following days of incubation with 2,4-DMP ([1]; 10^-5 moles/liter, day 1): 265 ± 12 | Relative activity following days of incubation with 2,4-DMP ([1]; 10^-5 moles/liter, day 2): 270 ± 0 | Relative activity following days of incubation with 2,4-DMP ([1]; 10^-5 moles/liter, day 3): 264 ± 13 | Relative activity following days of incubation with 2,4-DMP ([1]; 10^-5 moles/liter, day 4): 270 ± 0 | Relative activity following days of incubation with 2,4-DMP ([1]; 10^-5 moles/liter, day 5): 264 ± 13 | Relative activity following days of incubation with 2,4-DMP ([1]; 10^-5 moles/liter, day 6): 258 ± 16 | Relative activity following days of incubation with 2,4-DMP ([1]; 10^-5 moles/liter, day 7): 252 ± 16 | CFU/ml following days of culture ([2]; 10^-3 moles/liter, day 0): 2 × 10^4 CFU/ml | CFU/ml following days of culture ([2]; 10^-3 moles/liter, day 1): 5 × 10^4 CFU/ml | CFU/ml following days of culture ([2]; 10^-3 moles/liter, day 2): 6.3 × 10^4 CFU/ml | CFU/ml following days of culture ([2]; 10^-3 moles/liter, day 3): 6.5 × 10^4 CFU/ml | CFU/ml following days of culture ([2]; 10^-3 moles/liter, day 4): 6.7 × 10^4 CFU/ml | CFU/ml following days of culture ([2]; 10^-3 moles/liter, day 5): 4.1 × 10^4 CFU/ml | CFU/ml following days of culture ([2]; 10^-3 moles/liter, day 6): 3.3 × 10^4 CFU/ml | CFU/ml following days of culture ([2]; 10^-3 moles/liter, day 7): 1.5 × 10^4 CFU/ml | CFU/ml following days of culture ([2]; 10^-5 moles/liter, day 0): 2 × 10^4 CFU/ml | CFU/ml following days of culture ([2]; 10^-5 moles/liter, day 1): 1.2 × 10^5 CFU/ml | CFU/ml following days of culture ([2]; 10^-5 moles/liter, day 2): 7.5 × 10^6 CFU/ml | CFU/ml following days of culture ([2]; 10^-5 moles/liter, day 3): 2.5 × 10^7 CFU/ml | CFU/ml following days of culture ([2]; 10^-5 moles/liter, day 4): 6.0 × 10^7 CFU/ml | CFU/ml following days of culture ([2]; 10^-5 moles/liter, day 6): 1.5 × 10^7 CFU/ml | CFU/ml following days of culture ([2]; 10^-5 moles/liter, day 7): 4.3 × 10^6 CFU/ml | CFU/ml following days of culture ([2]; 10^-8 moles/liter, day 0): 2 × 10^4 CFU/ml | CFU/ml following days of culture ([2]; 10^-8 moles/liter, day 1): 1.5 × 10^5 CFU/ml | CFU/ml following days of culture ([2]; 10^-8 moles/liter, day 2): 7.2 × 10^6 CFU/ml | CFU/ml following days of culture ([2]; 10^-8 moles/liter, day 3): 2.4 × 10^7 CFU/ml | CFU/ml following days of culture ([2]; 10^-8 moles/liter, day 4): 6.3 × 10^7 CFU/ml | CFU/ml following days of culture ([2]; 10^-8 moles/liter, day 5): 5.2 × 10^7 CFU/ml | CFU/ml following days of culture ([2]; 10^-8 moles/liter, day 6): 1.1 × 10^7 CFU/ml | CFU/ml following days of culture ([2]; 10^-8 moles/liter, day 7): 4.2 × 10^6 CFU/ml | effect on mycoplasmal growth ([2]; higher concentrations (10^-3 M)): inhibit mycoplasmal growth | effect on growth of the organism ([2]; lower amounts (10^-5 M)): little or no effect on the growth of the organism

Reference: patent publication US4192896A, “Method of using dialkylphenols in the treatment of mycoplasma diseases” (priority 1979, dated 1980)
